Source: publication PMC7226860 (ACS Omega, 2020)
Values after ≈ are worked out from the molar mass of the structure shown.

What was measured:
S. aureus (ATCC: 6538) [1] = test: Agar well diffusion, inhibition zone; type: cell-based, Staphylococcus aureus; conditions: for zone of inhibition at 15000 µg/mL: Staphylococcus aureus, read-out: diameter of the inhibition zone; for diameter of the inhibition zone: S. aureus (ATCC: 6538), Gram (+ve), agar well diffusion, 15 mg/mL, mean ± SD
S. mutans (ATCC: 25175) [2] = test: Agar well diffusion, inhibition zone; type: cell-based, Streptococcus mutans; conditions: for zone of inhibition at 15000 µg/mL: Streptococcus mutans, read-out: diameter of the inhibition zone; for diameter of the inhibition zone: S. mutans (ATCC: 25175), Gram (+ve), agar well diffusion, 15 mg/mL, mean ± SD
S. aureus (ATCC: 6538) [3] = test: MIC, twofold serial dilution; type: cell-based; conditions: Staphylococcus aureus, 24 h
S. mutans (ATCC: 25175) [4] = test: MIC, twofold serial dilution; type: cell-based; conditions: Streptococcus mutans, 24 h
[5] = system: C. albicans (ATCC: 10231); test: Agar well diffusion, inhibition zone; type: cell-based, Candida albicans; conditions: for diameter of the inhibition zone: C. albicans (ATCC: 10231), fungi, 15 mg/mL, mean ± SD
[6] = system: C. albicans (ATCC: 10231); test: MIC, twofold serial dilution; type: cell-based, Candida albicans; conditions: C. albicans (ATCC: 10231); read after 24 h
E. coli (ATCC: 3008) [7] = test: Agar well diffusion, inhibition zone; type: cell-based, Escherichia coli; conditions: for diameter of the inhibition zone: E. coli (ATCC: 3008), Gram (−ve), agar well diffusion, 15 mg/mL, mean ± SD; for zone of inhibition at 15000 µg/mL: Escherichia coli, read-out: diameter of the inhibition zone
[8] = system: K. pneumonia (ATCC: 4415); test: Agar well diffusion, inhibition zone; type: cell-based, Klebsiella pneumonia; conditions: for zone of inhibition at 15000 µg/mL: Klebsiella pneumoniae, read-out: diameter of the inhibition zone, K. pneumonia (ATCC: 4415), Gram (−ve), 15 mg/mL, mean ± SD; for diameter of the inhibition zone: K. pneumonia (ATCC: 4415), Gram (−ve), 15 mg/mL, mean ± SD
[9] = system: P. aeruginosa (ATCC: 27853); test: Agar well diffusion, inhibition zone; type: cell-based, Pseudomonas aeruginosa; conditions: P. aeruginosa (ATCC: 27853), Gram (−ve); agar well diffusion, 15 mg/mL; mean ± SD
E. coli (ATCC: 3008) [10] = test: MIC, twofold serial dilution; type: cell-based; conditions: Escherichia coli, 24 h
[11] = system: HFB4 human dermal fibroblast cell line; test: MTT cytotoxicity assay; type: cell-based; conditions: 48 h
human DHFR = molecular target: T1, human DHFR (Homo sapiens, UniProt P00374); test: DHFR inhibitor screening kit; type: biochemical; conditions: for inhibition at 0.01 µg/mL / inhibition at 0.1 µg/mL / inhibition at 1 µg/mL / inhibition at 10 µg/mL: read-out: Inhibition of DHFR enzyme
T1 sequence (P00374 1-187): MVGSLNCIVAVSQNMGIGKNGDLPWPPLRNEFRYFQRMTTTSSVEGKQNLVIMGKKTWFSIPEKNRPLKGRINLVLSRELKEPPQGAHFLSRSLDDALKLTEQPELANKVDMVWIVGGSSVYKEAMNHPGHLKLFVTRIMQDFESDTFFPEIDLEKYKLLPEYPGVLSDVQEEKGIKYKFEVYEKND

[12] = system: K. pneumonia (ATCC: 4415); test: MIC, twofold serial dilution; type: cell-based; conditions: Klebsiella pneumoniae, 24 h, read after 24 h

SMILES | zone of inhibition at 15000 µg/mL (S. aureus (ATCC: 6538) [1]) [mm] | zone of inhibition at 15000 µg/mL (S. mutans (ATCC: 25175) [2]) [mm] | diameter of the inhibition zone [5] | diameter of the inhibition zone (E. coli (ATCC: 3008) [7]) | zone of inhibition at 15000 µg/mL [8] [mm] | diameter of the inhibition zone [9] | diameter of the inhibition zone (S. aureus (ATCC: 6538) [1]) | diameter of the inhibition zone (S. mutans (ATCC: 25175) [2]) | zone of inhibition at 15000 µg/mL (E. coli (ATCC: 3008) [7]) [mm] | diameter of the inhibition zone [8] | other results
CC1(C)S[C@@H]2[C@H](NC(=O)[C@H](N)c3ccccc3)C(=O)N2[C@H]1C(=O)O [Ampicillin, reference compound] | 32 ± 0.5 | 22 ± 0.5 |  |  |  |  |  |  |  |  | MIC (S. aureus (ATCC: 6538) [3]): 62.5 µg/mL (≈ 179 µM); MIC (S. mutans (ATCC: 25175) [4]): 62.5 µg/mL (≈ 179 µM)
C[C@@H]1[C@H](O)[C@@H](C)/C=C/C=C/CC/C=C/C=C/C=C/C=C/C(O[C@H]2O[C@H](C)[C@@H](O)[C@H](N)[C@@H]2O)CC2O[C@](O)(CC(O)C(O)CCC(O)CC(O)CC(O)CC(=O)O[C@H]1C)CC(O)C2C(=O)O (stereo partly drawn) [Nystatin, reference compound] |  |  | 28.0 ± 0.1 mm |  |  |  |  |  |  |  | MIC [6]: 31.25 µg/mL (≈ 33.7 µM)
O=C(Cc1nc2ccccc2s1)NNS(=O)(=O)c1ccccc1 [compound 3a, N′-(2-(Benzo[d]thiazol-2-yl)acetyl)benzenesulfonohydrazide] |  |  | − | − ^a | 20 ± 3 | − | − | − |  |  | 
Cc1ccc(S(=O)(=O)NNC(=O)Cc2nc3ccccc3s2)cc1 [compound 3b, N′-(2-(Benzo[d]thiazol-2-yl)acetyl)-4-methylbenzenesulfonohydrazide] | 17.6 ± 2.5 | 10.6 ± 0.5 | − |  | 32 ± 2 | − |  |  | 17.3 ± 2.5 |  | MIC (E. coli (ATCC: 3008) [10]): 250 µg/mL (≈ 692 µM); MIC (S. aureus (ATCC: 6538) [3]): 1000 µg/mL (≈ 2770 µM); MIC (S. mutans (ATCC: 25175) [4]): 1000 µg/mL (≈ 2770 µM); IC50 [11]: 165 ± 3.04 µg/mL (≈ 456 µM); IC50 (human DHFR): 1.02 µM; inhibition at 0.01 µg/mL (human DHFR): 17.9%; inhibition at 0.1 µg/mL (human DHFR): 33.4%; inhibition at 1 µg/mL (human DHFR): 60.9%; inhibition at 10 µg/mL (human DHFR): 81.5%
CSc1c(C#N)c(O)n(NS(=O)(=O)c2ccccc2)c(=O)c1-c1nc2ccccc2s1 [compound 5c, N-(3-(Benzo[d]thiazol-2-yl)-5-cyano-6-hydroxy-4-(methylthio)-2-oxopyridin-1(2H)-yl)benzenesulfonamide] | 17.6 ± 1.5 |  | − |  | 27.3 ± 1.5 | − |  | − | 23.3 ± 1.5 |  | 
CSc1c(C#N)c(O)n(NS(=O)(=O)c2ccc(C)cc2)c(=O)c1-c1nc2ccccc2s1 [compound 5d, N-(3-(Benzo[d]thiazol-2-yl)-5-cyano-6-hydroxy-4-(methylthio)-2-oxopyridin-1(2H)-yl)-4-methylbenzenesulfonamide] | 17.5 ± 2 |  | − | − | 18.2 ± 0.5 | − |  | − |  |  | 
CSc1c(C(=O)Nc2ccccc2)c(N)n(NS(=O)(=O)c2ccccc2)c(=O)c1-c1nc2ccccc2s1 [compound 9a, 2-Amino-5-(benzo[d]thiazol-2-yl)-4-(methylthio)-6-oxo-N-phenyl-1-(phenylsulfonamido)-1,6-dihydropyridine-3-carboxamide] | 31 ± 1 |  | − | − |  | − | 31 ± 1.0 mm | − |  | − | 
CSc1c(C(=O)Nc2ccccc2)c(N)n(NS(=O)(=O)c2ccc(C)cc2)c(=O)c1-c1nc2ccccc2s1 [compound 9b, 2-Amino-5-(benzo[d]thiazol-2-yl)-1-(4-methylphenylsulfonamido)-4-(methylthio)-6-oxo-N-phenyl-1,6-dihydropyridine-3-carboxamide] | 27.1 ± 0.2 |  | − | − |  | − |  | − |  | − | 
CSc1c(C(=O)Nc2ccc(C)cc2)c(N)n(NS(=O)(=O)c2ccccc2)c(=O)c1-c1nc2ccccc2s1 [compound 9c, 2-Amino-5-(benzo[d]thiazol-2-yl)-4-(methylthio)-6-oxo-1-(phenylsulfonamido)-N-(p-tolyl)-1,6-dihydropyridine-3-carboxamide] |  | 20.2 ± 1 | − |  | 29 | − | − |  | 14.8 ± 0.2 | 29.2 ± 0.3 mm | 
CSc1c(C(=O)Nc2ccc(C)cc2)c(N)n(NS(=O)(=O)c2ccc(C)cc2)c(=O)c1-c1nc2ccccc2s1 [compound 9d, 2-Amino-5-(benzo[d]thiazol-2-yl)-1-(4-methylphenylsulfonamido)-4-(methylthio)-6-oxo-N-(p-tolyl)-1,6-dihydropyridine-3-carboxamide] | 26.8 ± 1.5 | 8.8 ± 1 | 28.0 ± 0.7 mm | − |  | − |  |  |  | − | zone of inhibition at 15000 µg/mL ([5]; Candida albicans, read-out: diameter of the inhibition zone, C. albicans (ATCC: 10231), fungi, 15 mg/mL, mean ± SD): 21 to 28 mm
COc1ccc(NC(=O)c2c(SC)c(-c3nc4ccccc4s3)c(=O)n(NS(=O)(=O)c3ccccc3)c2N)cc1 [compound 9e, 2-Amino-5-(benzo[d]thiazol-2-yl)-N-(4-methoxyphenyl)-4-(methylthio)-6-oxo-1-(phenylsulfonamido)-1,6-dihydropyridine-3-carboxamide] | 19.6 ± 1 |  | − | − |  | − |  | − |  | no activity and − | 
COc1ccc(NC(=O)c2c(SC)c(-c3nc4ccccc4s3)c(=O)n(NS(=O)(=O)c3ccc(C)cc3)c2N)cc1 [compound 9f, 2-Amino-5-(benzo[d]thiazol-2-yl)-N-(4-methoxyphenyl)-1-(4-methylphenylsulfonamido)-4-(methylthio)-6-oxo-1,6-dihydropyridine-3-carboxamide] |  |  | − | − | 29 | − | − | − |  | 29.6 ± 1.5 mm | 
Cc1ccc(S(=O)(=O)Nn2c(N)c3c(N)n[nH]c3c(-c3nc4ccccc4s3)c2=O)cc1 [compound 11b, N-(3,4-Diamino-7-(benzo[d]thiazol-2-yl)-6-oxo-1H-pyrazolo[4,3-c]pyridin-5(6H)-yl)-4-methylbenzenesulfonamide] | 25.2 ± 1 | 21 ± 1 | no potency and − | 26.0 ± 1.0 mm | 17.5 ± 0.5 | − |  |  | 26 ± 1 |  | MIC (E. coli (ATCC: 3008) [10]): 31.2 µg/mL (≈ 66.8 µM); MIC [12]: 125 µg/mL (≈ 267 µM); MIC (S. aureus (ATCC: 6538) [3]): 500 µg/mL (≈ 1070 µM); MIC (S. mutans (ATCC: 25175) [4]): 500 µg/mL (≈ 1070 µM); IC50 [11]: 295 ± 19.1 µg/mL (≈ 631 µM); IC50 (human DHFR): 11.8 µM; inhibition at 0.01 µg/mL (human DHFR): 12.4%; inhibition at 0.1 µg/mL (human DHFR): 19.3%; inhibition at 1 µg/mL (human DHFR): 31.2%; inhibition at 10 µg/mL (human DHFR): 60.1%
